Results from article PMC5762338, “A novel orally available Syk/Src/Jak2 inhibitor, SKLB-850, showed potent anti-tumor activities in B cell lymphoma (BCL) models” (Oncotarget, 2017).

Tested on: Ki67 and CD20 in Ramos tumor tissues
Test: Immunohistochemistry of Ki67 and CD20 in tumor tissues from the Ramos model
Format: in vivo, NOD/SCID mice
Details: mouse tumor tissues
Description: The ability of inducing apoptosis of SKLB-850 in tumor tissues was examined by TUNEL. […] We then examined apoptotic tumor cells in B-cell lymphoma samples from BCL patients after SKLB-850 treatment by FCM. As shown in Figure 6C and 6F, SKLB-850 induced cell apoptosis (14.10 ± 4.04%), and R788 had the same effect but relatively weak (7.60 ± 0.52%). To better understand the mechanism of antitumor activities in vivo, Ki67 and CD20 in mouse tumor tissues were detected by immunohischemistry; Ki67 was a marker of proliferation in the diagnosis of tumors and CD20 was highly expressed in B cell lymphomas.
Paraffin sections from each group were stained with hematoxylineosin (H&E). For immunohistochemistry studies, tumor tissues in the Ramos model were performed and the following antibodies were used: phospho-Src (Cell Signaling Technology, 1:100), phospho-FAK (Cell Signaling Technology, 1:100), phospho-Stat3 (Cell Signaling Technology, 1:100), NF-κB p-65(Cell Signaling Technology, 1:100) and phospho-Syk (Cell Signaling Technology, 1:100). Additionally, Rat anti-mouse CD31 antibody (BD Biosciences, USA) and anti-Ki67 antibody (Gene Tech) were used to determine vessel density and cell proliferation following the manufacturer’s protocol, respectively. A DAKO polymer secondary antibody system (Dako Envision 1K4007) was used for secondary detection. […]

CN1CCN(c2ccc(Nc3ncc(F)c(Nc4ccc(Cl)cc4C(N)=O)n3)cc2)CC1 [SKLB-850, 5-chloro-2-((5-fluoro-2-((4-(4-methylpiperazin-1-yl)phenyl)amino)pyrimidin-4-yl)amino) benzamide]
CD20 expression (in words): significant reduction | Ki67 expression (in words): significant reduction
